Read-outs that look alike come from different tables or passages of the source.
Columns and labels:
CB1R [1] = target: T1, CB1R (Mus musculus, UniProt P47746); assay: biochemical; type: binding; settings: for Fraction high: CP55940 inhibition curve; for IC50: CP55940 vs [3H]SR141716A 2 nmol/L
T1 construct: from tissue

mHtt = test system: mHtt; design: method as in PMID 20929960; settings: pharmacological activation of CB1R, HD mouse models; cited from earlier work
aged mice = test system: aged mice; design: method as in PMID 16221768, PMID 36697430; settings: chronic low-dose; cited from earlier work
WT mice [2] = assay: Open field test in WT mice (WIN dose selection); type: in vivo, mouse; settings: 13-week-old WT mice, WIN 1 and 4 mg/kg i.p., 10 days
Protocol: NOLT was conducted in a quadrangular open field (40 cm × 40 cm, 40 cm high) with a light intensity of 40 lx at controlled room conditions (19–22 °C, 40%–60% humidity). Mice were first habituated to the arena, which was devoid of objects but included spatial cues attached to the walls, for 15 min per session over two consecutive days. During this phase, spontaneous locomotor activity, as well as the time and the distance spent in the periphery versus the center, were measured. On the third day (NOLT training), two identical objects (A and A′) were placed in adjacent corners of the arena, and mice were allowed to explore for 10 min. […] Animal movements were tracked and recorded using the SMART® Junior software (Panlab, Spain). Exploration times were recorded to calculate the discrimination index as follows: discriminationindex=Timeexploringnovelobject-Timeexploringfamiliarobject/Timeexploringbothobjects×100\%
Exploration in the NORT followed the same conditions as described for the NOLT. […] During this phase, spontaneous locomotor activity and time/distance spent in the periphery versus the center of the arena were measured. […] Animal movements were tracked and recorded with the SMART® Junior software (Panlab, Spain). Exploration times were recorded and used to calculate the discrimination index as indicated above. […]

WT mice [3] = assay: Novel object location task (NOLT) in WT mice (WIN dose selection); type: in vivo, mouse; settings: 13-week-old WT mice, WIN 1 and 4 mg/kg i.p., 10 days
Protocol: NOLT was conducted in a quadrangular open field (40 cm × 40 cm, 40 cm high) with a light intensity of 40 lx at controlled room conditions (19–22 °C, 40%–60% humidity). Mice were first habituated to the arena, which was devoid of objects but included spatial cues attached to the walls, for 15 min per session over two consecutive days. During this phase, spontaneous locomotor activity, as well as the time and the distance spent in the periphery versus the center, were measured. On the third day (NOLT training), two identical objects (A and A′) were placed in adjacent corners of the arena, and mice were allowed to explore for 10 min. Twenty-four hours later (NOLT testing), the object A was placed in the same location, while a new object (A″) was placed in the diagonally opposite corner. During the testing phase, mice were allowed to explore for 5 min. The arena was thoroughly cleaned between trials to eliminate residual odors. Animal movements were tracked and recorded using the SMART® Junior software (Panlab, Spain). Exploration times were recorded to calculate the discrimination index as follows: discriminationindex=Timeexploringnovelobject-Timeexploringfamiliarobject/Timeexploringbothobjects×100\%
(§1) Given the observed reduction of CB1R in the R6/1 hippocampus, we hypothesized that pharmacological activation of the remaining CB1Rs could mitigate HD-related memory decline.

WT mice [4] = assay: Novel object recognition task (NORT) in WT mice (WIN dose selection); type: in vivo, mouse; settings: 13-week-old WT mice, WIN 1 and 4 mg/kg i.p., 10 days
Protocol: Exploration in the NORT followed the same conditions as described for the NOLT. Mice were first habituated to the arena, without objects, for 15 min on two consecutive days. During this phase, spontaneous locomotor activity and time/distance spent in the periphery versus the center of the arena were measured. On the third day (NORT training), mice were allowed to explore two identical objects (B and B′) for 10 min before being returned to their home cage. Twenty-four hours later (NORT testing), one of the familiar objects (B) and a new object (C) were placed in the same location as during the training session, and the mice were allowed to explore for 5 min. The arena was thoroughly cleaned between trials to prevent odor contamination. Animal movements were tracked and recorded with the SMART® Junior software (Panlab, Spain). Exploration times were recorded and used to calculate the discrimination index as indicated above.
as §1

WT mice [5] = assay: Y-maze in WT mice (WIN dose selection); type: in vivo, mouse; settings: 13-week-old WT mice, WIN 1 and 4 mg/kg i.p., 10 days
Protocol: (§2) Spontaneous working memory was assessed using the Y-maze test. Mice were habituated to the testing room 1 h prior to the session. During the 8-min trial, each mouse was placed in the center of the maze and allowed to move freely. An arm entry was recorded when all four paws of the mouse were within the arm. The apparatus was cleaned thoroughly after each trial. Alternation was defined as successive entries into all three arms in an overlapping triplet sequence. Spontaneous alternation was calculated as the ratio of actual alternations to the total possible alternations, and the result was expressed as a percentage.
as §1

R6/1 mice = assay: Y-maze spontaneous alternation in R6/1 mice; type: in vivo, mouse; settings: WIN 1 mg/kg i.p. 10 days
Protocol: To selectively induce CB1R expression in GABAergic neurons, we generated a plasmid for AAV8-mDlx5/6-CNR1. Infectious AAV viral particles were developed by the Viral Vector Production Unit (UPV) of the Universitat Autònoma de Barcelona (UAB). WT and R6/1 mice, aged 10 weeks, were anesthetized with ketamine hydrochloride/xylazine hydrochloride (i.p.; 100 and 10 mg/kg, respectively, Merck) and injected bilaterally in the hippocampus with AAV8-mDlx-CB1R or AAV8-mCherry (Vector Biolabs) (viral concentrations ranging from 1.8 × 10^9 to 1.5 × 10^9). The injection coordinates (in mm) from bregma (anteroposterior and lateral) and from skull (dorsoventral) were as follows: anteroposterior: − 2.0; lateral ± 1.25, and dorsoventral: − 1.3 (CA1). AAVs were injected for over 2 min, and the cannula was left in place for an additional 5 min to allow complete diffusion of the virus before being slowly retracted. Mice were monitored for 1 h post-injection and then returned to the housing facility for 3 weeks. […] For double-positive quantification, Pearson’s correlation coefficient was calculated using ImageJ2. […]
Spontaneous working memory was assessed using the Y-maze test. […] An arm entry was recorded when all four paws of the mouse were within the arm. […] Spontaneous alternation was calculated as the ratio of actual alternations to the total possible alternations, and the result was expressed as a percentage.

[6] = test system: Hdh^Q7/Q111 mutant KI mice; assay: NOLT, NORT and Y-maze in Hdh^Q7/Q111 KI mice; type: in vivo, mouse; settings: 6 months, sub-chronic WIN 1 mg/kg i.p.
Protocol: as §2
NOLT was conducted in a quadrangular open field (40 cm × 40 cm, 40 cm high) with a light intensity of 40 lx at controlled room conditions (19–22 °C, 40%–60% humidity). […] During this phase, spontaneous locomotor activity, as well as the time and the distance spent in the periphery versus the center, were measured. […] Animal movements were tracked and recorded using the SMART® Junior software (Panlab, Spain). Exploration times were recorded to calculate the discrimination index as follows: discriminationindex=Timeexploringnovelobject-Timeexploringfamiliarobject/Timeexploringbothobjects×100\%
Exploration in the NORT followed the same conditions as described for the NOLT. […] Animal movements were tracked and recorded with the SMART® Junior software (Panlab, Spain). […]

CB1R [7] = type: in vivo, mouse; settings: for CB1R protein level, Western blot: total hippocampal lysates, WIN 1 mg/kg i.p. 10 days
CB1R [8] = type: in vivo, mouse; settings: hippocampus
Protocol: WT and R6/1 mice were deeply anesthetized with ketamine and xylazine (i.p injection; 100 mg/kg and 10 mg/kg, respectively) and immediately perfused transcardially with saline, followed by 4% paraformaldehyde in phosphate buffer. Brains were then removed, post-fixed overnight in the same solution, cryoprotected by immersion in 30% sucrose, and frozen in dry ice-cooled methylbutane. Serial coronal cryostat sections (30 μm) were collected through the entire brain in PBS as free-floating sections and processed as described previously [47].
Sections were rinsed three times in PBS, permeabilized, and blocked in PBS containing 0.3% Triton X-100 and 3% normal goat serum (Pierce Biotechnology, Rockford, IL) for 15 min at room temperature. […]
Stained coronal sections were examined using a Carl Zeiss LSM880 confocal microscope, a 10 × , 40 × and 63 × oil-immersion objective, 4 × digital zoom, and a standard Airy disc pinhole. For each mouse, at least three 30-µm thick coronal sections containing the hippocampal region were analyzed. […] The CB1R-, calbindin- and GAD67-integrated density was quantified with NIH ImageJ2 version 2.9.0/1.53t (Wayne Rasband, NIH). For double-positive quantification, Pearson’s correlation coefficient was calculated using ImageJ2. […]

[9] = test system: mutant huntingtin (mHtt) aggregates; assay: EM48 immunostaining of mutant huntingtin nuclear aggregates in hippocampus; type: in vivo, mouse; settings: R6/1 mice, hippocampus (CA1), WIN 1 mg/kg i.p. vs vehicle
Protocol: Hippocampal coronal sections from vehicle- and WIN-treated R6/1 mice were first incubated for 30 min in ammonium chloride (NH4Cl) to quench endogenous fluorescence. They were then blocked for 1 h in PBS containing 0.3% Triton X-100 (Merck), 3% normal goat serum (Abcam), and 1% bovine serum albumin (BSA; Merck). After blocking, the sections were incubated overnight at 4 °C with anti-EM48 (1:1000, Merck). The EM48 antibody specifically recognizes huntingtin-containing nuclear aggregates by targeting the first 256 amino acids of human huntingtin protein [48]. […]
Imaging was performed using a Leica Confocal SP5 with a 63 × oil-immersion objective, ensuring consistent imaging conditions (pinhole size:1 AU, resolution: 1024 × 1024 pixels, and intensity). Automated quantification of nuclear huntingtin aggregates, including the number, intensity, and pixel area of EM48-stained nuclei in the hippocampus, was carried out using the ImageJ particle analysis plugin.
The density of aggregates was calculated as the ratio of the number of positive particles (NII) to the pixel area (mm^2). EM48 staining index (SI) was determined as the product of the mean number of stained nuclei and the average nuclear stain intensity, as described previously.

CB2R = assay: Western blot of CB2R in total hippocampal lysates after sub-chronic WIN; type: in vivo, mouse; settings: WIN 1 mg/kg i.p. 10 days
CA1 pyramidal neurons [10] = assay: Golgi-Cox dendritic spine density analysis; type: in vivo, mouse; settings: R6/1 mice, WIN 1 mg/kg i.p. sub-chronic
Protocol: Golgi-Cox impregnation was performed using the Rapid Golgistain Kit (FD Neurotechnologies, Columbia, MD) following the manufacturer's instructions. Mice were euthanized by cervical dislocation, and brains were rapidly removed. The two hemispheres were separated and incubated in a solution of A/B for 2 weeks. After this period, the brains were transferred to solution C for an additional 7 days. The brains were then processed using a cryostat to obtain 100-μm sections, which were mounted on gelatin-coated slides and left to dry for 24 h.
The sections were stained with the solutions provided in the kit and subsequently dehydrated before being mounted with DPX. Bright field images were acquired using a Leica AF6000 epifluorescence microscope with a × 63 numerical aperture objective for dendritic spine analysis. Segments of apical dendrites from hippocampal CA1 pyramidal neurons were selected for analysis. Dendritic spine density was manually quantified using the ImageJ Plug-in Cell Counter. Spines were marked in the appropriate focal plane preventing double counting, and only fully impregnated pyramidal neurons with their soma entirely within the thickness of the section were included. Dendritic segments ranging from 20 to 60 μm in length were analyzed. At least 60 dendrites per group from at least three mice per genotype were counted.

PSD95 = assay: Western blot of PSD95 in hippocampal lysates; type: in vivo, mouse; settings: R6/1 mice, WIN 1 mg/kg i.p. 10 days
BDNF = assay: Western blot of BDNF in hippocampal lysates; type: in vivo, mouse; settings: R6/1 mice, WIN 1 mg/kg i.p. 10 days
CA1 pyramidal neurons [11] = assay: Ex vivo patch-clamp: depolarization-induced suppression of inhibition (DSI); type: in vivo, mouse; settings: hippocampal slices of WIN-treated R6/1 mice, n = 17 neurons
adult rats = test system: adult rats; design: method as in PMID 12888772; settings: chronic treatment; cited from earlier work
[12] = test system: rat model of cholinergic degeneration; design: method as in PMID 39489624; settings: low-dose WIN; cited from earlier work
CB1R [13] = test system: CB1R; design: method as in PMID 36979335; settings: rat model of cerebral ischemia; cited from earlier work
young rats = settings: chronic WIN; cited from earlier work
[14] = test system: models of vascular dementia and ischemic injury; design: method as in PMID 36979335, PMID 29945070; settings: cited from earlier work

T1 sequence (P47746 whole entry): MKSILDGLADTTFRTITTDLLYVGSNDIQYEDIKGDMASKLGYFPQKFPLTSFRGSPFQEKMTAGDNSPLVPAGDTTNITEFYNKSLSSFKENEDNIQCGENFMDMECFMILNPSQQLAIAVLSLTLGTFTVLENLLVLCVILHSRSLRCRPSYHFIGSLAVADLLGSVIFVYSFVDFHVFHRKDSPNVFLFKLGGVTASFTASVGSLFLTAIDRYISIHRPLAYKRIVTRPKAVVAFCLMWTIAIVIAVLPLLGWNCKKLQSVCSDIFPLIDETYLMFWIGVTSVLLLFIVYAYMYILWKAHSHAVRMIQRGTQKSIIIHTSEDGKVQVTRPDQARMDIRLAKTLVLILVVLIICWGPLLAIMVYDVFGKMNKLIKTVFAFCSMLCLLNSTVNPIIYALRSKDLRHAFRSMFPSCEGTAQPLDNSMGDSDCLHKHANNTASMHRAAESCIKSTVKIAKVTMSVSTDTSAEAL

CCCCCCC(C)(C)c1ccc([C@@H]2C[C@H](O)CC[C@H]2CCCO)c(O)c1 [CP55940]
Fraction high (CB1R [1]; hippocampal membranes of R6/1 WIN (1 mg/kg) mice): 0.6378^$$$ | Fraction high (CB1R [1]; hippocampal membranes of WT WIN (1 mg/kg) mice): 0.4654 | Fraction high (CB1R [1]; hippocampal membranes of WT veh mice): 0.4696 | IC50 (CB1R [1]; IC50 (single binding site), hippocampal membranes of R6/1 veh mice): 64.4 ± 12.1 nM | IC50 (CB1R [1]; IC50, first value (high-affinity site), hippocampal membranes of R6/1 WIN (1 mg/kg) mice): 10.9 ± 16 nM | IC50 (CB1R [1]; IC50, first value (high-affinity site), hippocampal membranes of WT WIN (1 mg/kg) mice): 18 ± 16.7 nM | IC50 (CB1R [1]; IC50, first value (high-affinity site), hippocampal membranes of WT veh mice): 23.2 ± 18.8 nM | IC50 (CB1R [1]; read-out: IC50, second value (low-affinity site), hippocampal membranes of R6/1 WIN (1 mg/kg) mice): 382 nM | IC50 (CB1R [1]; read-out: IC50, second value (low-affinity site), hippocampal membranes of WT WIN (1 mg/kg) mice): 850 nM | IC50 (CB1R [1]; read-out: IC50, second value (low-affinity site), hippocampal membranes of WT veh mice): 1140 nM

CCCCCc1cc(O)c2c(c1)OC(C)(C)[C@@H]1CCC(C)=C[C@@H]21 [THC, Δ9-tetrahydrocannabinol]
mHtt accumulation (mHtt): alleviates | cognitive function (aged mice): improves | cortical spine density (aged mice): increasing | synaptic protein expression (aged mice): increasing

Cc1c(C(=O)c2cccc3ccccc23)c2cccc3c2n1[C@H](CN1CCOCC1)CO3 [WIN, WIN 55212–2]
time spent in the periphery and the center of the open field arena (WT mice [2]): No adverse effects | total distance traveled during the open field test (WT mice [2]): No adverse effects | spatial memory (NOLT) (WT mice [3]): no differences | recognition memory (NORT) (WT mice [4]): no differences | working memory (Y-maze) (WT mice [5]): no differences | spontaneous alternation performance (Y-maze) (R6/1 mice; presymptomatic stage (11 weeks, Fig. S4d)): significantly enhanced | spontaneous alternation performance (Y-maze) (R6/1 mice; symptomatic stage (13 weeks, Fig. 3d)): significantly enhanced | memory deficits (NOLT, NORT, Y-maze) [6]: restored | CB1R levels, Western blot (CB1R [7]; Hdh^Q7/Q111 KI mice 6 months, hippocampal lysates, sub-chronic WIN): trend of increase | CB1R protein level, Western blot (CB1R [7]; R6/1 mice 13 weeks): restored | CB1R protein level, Western blot (CB1R [7]; WT mice): significantly modulated | CB1R staining, immunohistochemistry (CB1R [8]; Hdh^Q7/Q111 KI mice, sub-chronic WIN): restored to near WT levels | CB1R levels, immunohistochemistry (CB1R [8]; R6/1 mice, WIN 1 mg/kg i.p. 10 days): comparable to those of WT controls | density of intranuclear mHtt inclusion [9]: significant reduction | CB2R levels, Western blot (CB2R; Hdh^Q7/Q111 KI mice 6 months): did not significantly affect | CB2R levels, Western blot (CB2R; R6/1 mice 13 weeks): did not significantly affect | apical dendritic spine density reduction in CA1 pyramidal neurons (CA1 pyramidal neurons [10]): reversed | PSD95 protein level (PSD95): restored | BDNF protein level (BDNF): restored | DSI: suppression of IPSC amplitude after 5-s depolarizing step (-70 to 0 mV) (CA1 pyramidal neurons [11]): 52.70% ± 5.65 | performance in novel object recognition test (adult rats): did not affect | performance in open field test (adult rats): did not affect | CB1R activity in the cortex [12]: increase | cognitive performance [12]: improved | CB1R protein levels in the hippocampus (CB1R [13]): significantly increased | cytoskeletal remodeling in the hippocampus (young rats): increased dendritic thickness and branching | neuroprotection [14]: neuroprotective effects

Source: PMC12376758, “Restoration of CB1 receptor function in hippocampal GABAergic neurons rescues memory deficits in Huntington’s disease models” (Translational Neurodegeneration, 2025)
